Experimental data reported in ChEMBL document CHEMBL3885881, “DrugMatrix”.

Species on record: Rattus norvegicus
Assay: DrugMatrix - Regimen: Daily Repeat
Assay type: toxicity, organism-based, Sprague-Dawley
Design: regimen Daily Repeat, gender Male, age 6-8 weeks
Conditions: in vivo, sc, route subcutaneous, […]; for ABSOLUTE BASOPHIL / ABSOLUTE EOSINOPHIL / ABSOLUTE LYMPHOCYTE / ABSOLUTE MONOCYTE / ABSOLUTE SEGMENTED NEUTROPHIL / BASOPHIL / EOSINOPHIL / ERYTHROCYTE COUNT / HEMATOCRIT / HEMOGLOBIN / LEUKOCYTE COUNT / LYMPHOCYTE / MEAN CORPUSCULAR HEMOGLOBIN / MEAN CORPUSCULAR HEMOGLOBIN CONCENTRATION / MEAN CORPUSCULAR VOLUME / MONOCYTE / NEUTROPHIL / NUCLEATED RED BLOOD CELLS / PLATELET COUNT: tissue Blood; for ALANINE AMINOTRANSFERASE / ALBUMIN / ALKALINE PHOSPHATASE / ASPARTATE AMINOTRANSFERASE / BLOOD UREA NITROGEN / CARBON DIOXIDE / CHLORIDE / CHOLESTEROL / CREATINE PHOSPHOKINASE / CREATININE / GLUCOSE / LACTATE DEHYDROGENASE / LIPASE / PHOSPHORUS / POTASSIUM / SODIUM / TOTAL BILIRUBIN / TOTAL PROTEIN / URIC ACID: tissue Plasma
[1] = 260 mg/kg, 72 h, dose level Low, time 3 day
[2] = 260 mg/kg, 120 h, dose level Low, time 5 day
[3] = 2600 mg/kg, 72 h, dose level High, time 3 day
[4] = 2600 mg/kg, 120 h, dose level High, time 5 day

c1ccc2sc(SSc3nc4ccccc4s3)nc2c1 [BENZOTHIAZYL DISULFIDE]
ABSOLUTE BASOPHIL [1]: 0 CELLS/uL
ABSOLUTE EOSINOPHIL [1]: 108 CELLS/uL
ABSOLUTE LYMPHOCYTE [1]: 9435.33 CELLS/uL
ABSOLUTE MONOCYTE [1]: 328 CELLS/uL
ABSOLUTE SEGMENTED NEUTROPHIL [1]: 1062 CELLS/uL
BASOPHIL [1]: 0%
EOSINOPHIL [1]: 1%
ERYTHROCYTE COUNT [1]: 5.25 x10E6/uL
HEMATOCRIT [1]: 33.03%
HEMOGLOBIN [1]: 12.27 G/DL
LEUKOCYTE COUNT [1]: 10.93 x10E3/uL
LYMPHOCYTE [1]: 86.33%
MEAN CORPUSCULAR HEMOGLOBIN [1]: 23.33 pg
MEAN CORPUSCULAR HEMOGLOBIN CONCENTRATION [1]: 37.13 G/DL
MEAN CORPUSCULAR VOLUME [1]: 62.87 fL
MONOCYTE [1]: 3%
NEUTROPHIL [1]: 9.67%
NUCLEATED RED BLOOD CELLS [1]: 0 /100WBC
PLATELET COUNT [1]: 1377.33 x10E3/uL
ALANINE AMINOTRANSFERASE [1]: 42 u/L
ALBUMIN [1]: 3.87 G/DL
ALKALINE PHOSPHATASE [1]: 365.33 u/L
ASPARTATE AMINOTRANSFERASE [1]: 91.67 u/L
BLOOD UREA NITROGEN [1]: 16 mg/dL
CARBON DIOXIDE [1]: 26 mmol/L
CHLORIDE [1]: 105.33 MEQ/L
CHOLESTEROL [1]: 77.33 mg/dL
CREATINE PHOSPHOKINASE [1]: 411.33 u/L
CREATININE [1]: 0.21 mg/dL
GLUCOSE [1]: 149.33 mg/dL
LACTATE DEHYDROGENASE [1]: 600.33 u/L
LIPASE [1]: 8.67 u/L
PHOSPHORUS [1]: 12.73 mg/dL
POTASSIUM [1]: 6.51 MEQ/L
SODIUM [1]: 145.03 MEQ/L
TOTAL BILIRUBIN [1]: 0.17 mg/dL
TOTAL PROTEIN [1]: 5.4 G/DL
URIC ACID [1]: 1.47 mg/dL
ABSOLUTE BASOPHIL [2]: 0 CELLS/uL
ABSOLUTE EOSINOPHIL [2]: 214.33 CELLS/uL
ABSOLUTE LYMPHOCYTE [2]: 15055 CELLS/uL
ABSOLUTE MONOCYTE [2]: 283.33 CELLS/uL
ABSOLUTE SEGMENTED NEUTROPHIL [2]: 1280.67 CELLS/uL
BASOPHIL [2]: 0%
EOSINOPHIL [2]: 1.33%
ERYTHROCYTE COUNT [2]: 5.49 x10E6/uL
HEMATOCRIT [2]: 34.87%
HEMOGLOBIN [2]: 13.17 G/DL
LEUKOCYTE COUNT [2]: 16.83 x10E3/uL
LYMPHOCYTE [2]: 89.33%
MEAN CORPUSCULAR HEMOGLOBIN [2]: 24.1 pg
MEAN CORPUSCULAR HEMOGLOBIN CONCENTRATION [2]: 37.8 G/DL
MEAN CORPUSCULAR VOLUME [2]: 63.7 fL
MONOCYTE [2]: 1.67%
NEUTROPHIL [2]: 7.67%
NUCLEATED RED BLOOD CELLS [2]: 0.67 /100WBC
PLATELET COUNT [2]: 1489.67 x10E3/uL
ALANINE AMINOTRANSFERASE [2]: 39 u/L
ALBUMIN [2]: 3.93 G/DL
ALKALINE PHOSPHATASE [2]: 463.33 u/L
ASPARTATE AMINOTRANSFERASE [2]: 92.67 u/L
BLOOD UREA NITROGEN [2]: 18.33 mg/dL
CARBON DIOXIDE [2]: 28.33 mmol/L
CHLORIDE [2]: 105.33 MEQ/L
CHOLESTEROL [2]: 70.67 mg/dL
CREATINE PHOSPHOKINASE [2]: 529 u/L
CREATININE [2]: 0.19 mg/dL
GLUCOSE [2]: 169 mg/dL
LACTATE DEHYDROGENASE [2]: 102.33 u/L
LIPASE [2]: 8 u/L
PHOSPHORUS [2]: 12.13 mg/dL
POTASSIUM [2]: 6.59 MEQ/L
SODIUM [2]: 147.43 MEQ/L
TOTAL BILIRUBIN [2]: 0.2 mg/dL
TOTAL PROTEIN [2]: 5.63 G/DL
URIC ACID [2]: 1.63 mg/dL
ABSOLUTE BASOPHIL [3]: 0 CELLS/uL
ABSOLUTE EOSINOPHIL [3]: 50.67 CELLS/uL
ABSOLUTE LYMPHOCYTE [3]: 11758.67 CELLS/uL
ABSOLUTE MONOCYTE [3]: 266.67 CELLS/uL
ABSOLUTE SEGMENTED NEUTROPHIL [3]: 857.33 CELLS/uL
BASOPHIL [3]: 0%
EOSINOPHIL [3]: 0.33%
ERYTHROCYTE COUNT [3]: 5.31 x10E6/uL
HEMATOCRIT [3]: 32.77%
HEMOGLOBIN [3]: 12.3 G/DL
LEUKOCYTE COUNT [3]: 12.93 x10E3/uL
LYMPHOCYTE [3]: 91.33%
MEAN CORPUSCULAR HEMOGLOBIN [3]: 23.2 pg
MEAN CORPUSCULAR HEMOGLOBIN CONCENTRATION [3]: 37.53 G/DL
MEAN CORPUSCULAR VOLUME [3]: 61.7 fL
MONOCYTE [3]: 2%
NEUTROPHIL [3]: 6.33%
NUCLEATED RED BLOOD CELLS [3]: 0 /100WBC
PLATELET COUNT [3]: 1463.67 x10E3/uL
ALANINE AMINOTRANSFERASE [3]: 24.33 u/L
ALBUMIN [3]: 3.73 G/DL
ALKALINE PHOSPHATASE [3]: 327.67 u/L
ASPARTATE AMINOTRANSFERASE [3]: 90.67 u/L
BLOOD UREA NITROGEN [3]: 16 mg/dL
CARBON DIOXIDE [3]: 24 mmol/L
CHLORIDE [3]: 104 MEQ/L
CHOLESTEROL [3]: 76.33 mg/dL
CREATINE PHOSPHOKINASE [3]: 376.67 u/L
CREATININE [3]: 0.16 mg/dL
GLUCOSE [3]: 151.67 mg/dL
LACTATE DEHYDROGENASE [3]: 543.33 u/L
LIPASE [3]: 8.33 u/L
PHOSPHORUS [3]: 12 mg/dL
POTASSIUM [3]: 6.59 MEQ/L
SODIUM [3]: 145.13 MEQ/L
TOTAL BILIRUBIN [3]: 0.3 mg/dL
TOTAL PROTEIN [3]: 5.2 G/DL
URIC ACID [3]: 1.63 mg/dL
ABSOLUTE BASOPHIL [4]: 0 CELLS/uL
ABSOLUTE EOSINOPHIL [4]: 0 CELLS/uL
ABSOLUTE LYMPHOCYTE [4]: 11990.67 CELLS/uL
ABSOLUTE MONOCYTE [4]: 262 CELLS/uL
ABSOLUTE SEGMENTED NEUTROPHIL [4]: 914 CELLS/uL
BASOPHIL [4]: 0%
EOSINOPHIL [4]: 0%
ERYTHROCYTE COUNT [4]: 5.81 x10E6/uL
HEMATOCRIT [4]: 36.07%
HEMOGLOBIN [4]: 13.33 G/DL
LEUKOCYTE COUNT [4]: 13.17 x10E3/uL
LYMPHOCYTE [4]: 91%
MEAN CORPUSCULAR HEMOGLOBIN [4]: 22.97 pg
MEAN CORPUSCULAR HEMOGLOBIN CONCENTRATION [4]: 36.97 G/DL
MEAN CORPUSCULAR VOLUME [4]: 62.1 fL
MONOCYTE [4]: 2%
NEUTROPHIL [4]: 7%
NUCLEATED RED BLOOD CELLS [4]: 0 /100WBC
PLATELET COUNT [4]: 1293.33 x10E3/uL
ALANINE AMINOTRANSFERASE [4]: 31 u/L
ALBUMIN [4]: 3.6 G/DL
ALKALINE PHOSPHATASE [4]: 266.33 u/L
ASPARTATE AMINOTRANSFERASE [4]: 72 u/L
BLOOD UREA NITROGEN [4]: 14.67 mg/dL
CARBON DIOXIDE [4]: 26.33 mmol/L
CHLORIDE [4]: 105.67 MEQ/L
CHOLESTEROL [4]: 83 mg/dL
CREATINE PHOSPHOKINASE [4]: 133 u/L
CREATININE [4]: 0.23 mg/dL
GLUCOSE [4]: 156 mg/dL
LACTATE DEHYDROGENASE [4]: 67.67 u/L
LIPASE [4]: 8.67 u/L
PHOSPHORUS [4]: 12.23 mg/dL
POTASSIUM [4]: 6.11 MEQ/L
SODIUM [4]: 145.9 MEQ/L
TOTAL BILIRUBIN [4]: 0.1 mg/dL
TOTAL PROTEIN [4]: 5.63 G/DL
URIC ACID [4]: 2 mg/dL
